Key:
[1] = biological target: T1, PI3Kβ (Homo sapiens, UniProt P42338); experiment: PI3Kβ isoform profiling (PI3Kδ protocol); type: biochemical; conditions: for PI3Kβ @ 0.3 μM (% Inh): 0.3 μM compound; for IC50: 10 dose IC50
T1 construct: purchased Reaction Biology Corporation
Source text: PI3Kδ assay: The PIP3 product is detected by displacement of biotin-PIP3 from an energy transfer complex consisting of Europium labeled anti-GST monoclonal antibody, a GST-tagged pleckstrin homology (PH) domain, biotinylated PIP3 and Streptavidin-Allophycocyanin (APC). Excitation of Europium in the complex results in an energy transfer to the APC and a fluorescent emission at 665 nm. The PIP3 product formed by PI 3-Kinase(h) activity displaces biotin-PIP3 from the complex resulting in a loss of energy transfer and thus a decrease in signal. This is a 3-step reaction: First, the kinase reaction with PIP2 substrate is carried out in the presence of ATP (10 μM), and the reaction is quenched with stop Solution, and then finally detect by adding Detection Mixture followed by incubation (10 min). Reaction procedure: 1) Prepare substrate in freshly prepared Reaction Buffer. 2) Deliver kinase into the substrate solution and gently mix. 3) Deliver compounds in 100% DMSO (1 μM) into the kinase reaction mixture by Acoustic technology (Echo550; nanoliter range), incubate for 10 min at RT. 4) Deliver ATP into the reaction mixture to initiate the reaction. 5) Incubate for 30 min at 30° C. 6) Quench the reaction with Stop Solution. 7) Add Detection Mixture, and incubate for overnight. 8) Measure HTRF: Ex=320 nm, ratio of Em=615 nm and Em=665 nm. The emission ratio is converted into μM PIP3 production based on PIP3 standard curves. The nonlinear regression to obtain the standard curve and IC50 values are performed using Graphpad Prism software. Assay Buffer: HEPES 50 mM (pH7.0), NaN3 0.02%, BSA 0.01%, Orthovanadate 0.1 mM, 1% DMSO. Detection buffer: HEPES 10 mM (pH7.0), BSA 0.02%, KF 0.16 M, EDTA 4 mM. Substrate: 10 μM PIP2 substrate (PI(4,5)P2).
Compounds of the invention were profiled in a 10 dose IC50 panel against PI3Kα, PI3Kβ, and PI3Kγ kinases, provided by Reaction Biology Corporation, applied to the PI3Kδ protocol provided in Example B1.

[2] = biological target: T2, TEC (Homo sapiens, UniProt P42680); experiment: TEC kinase profiling (BTK protocol); type: biochemical; conditions: for TEC @ 0.3 μM (% Inh): 0.3 μM compound; for IC50: 10 dose IC50
T2 construct: purchased Reaction Biology Corporation
T2 sequence (P42680 1-631): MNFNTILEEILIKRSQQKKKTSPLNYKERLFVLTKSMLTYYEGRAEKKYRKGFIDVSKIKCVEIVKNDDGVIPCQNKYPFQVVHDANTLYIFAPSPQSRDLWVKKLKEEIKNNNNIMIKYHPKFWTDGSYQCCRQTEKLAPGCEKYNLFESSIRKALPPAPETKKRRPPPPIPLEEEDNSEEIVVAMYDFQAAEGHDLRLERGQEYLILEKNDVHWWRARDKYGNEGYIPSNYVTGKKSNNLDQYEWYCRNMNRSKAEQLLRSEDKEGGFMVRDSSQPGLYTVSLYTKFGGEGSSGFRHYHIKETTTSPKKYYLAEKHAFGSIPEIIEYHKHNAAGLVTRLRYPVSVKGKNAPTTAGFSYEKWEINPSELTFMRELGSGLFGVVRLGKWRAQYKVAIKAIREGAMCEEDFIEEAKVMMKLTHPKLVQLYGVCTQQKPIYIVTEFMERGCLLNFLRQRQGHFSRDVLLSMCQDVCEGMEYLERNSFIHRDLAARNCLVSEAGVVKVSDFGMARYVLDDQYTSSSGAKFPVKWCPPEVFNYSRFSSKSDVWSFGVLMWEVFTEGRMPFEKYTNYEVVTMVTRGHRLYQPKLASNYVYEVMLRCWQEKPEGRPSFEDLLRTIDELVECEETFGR
Procedure: BTK assay: In vitro profiling protein kinases was performed using the “HotSpot” assay platform. Briefly, specific kinase/substrate pairs along with required cofactors were prepared in reaction buffer. Compounds were prepared as 10 mM stock solutions in DMSO. Compounds were delivered into the reaction, followed 15-20 minutes later by addition of a mixture of ATP (Sigma, St. Louis Mo.) and ^33P ATP (Perkin Elmer, Waltham Mass.) to a final concentration of 10 μM. […] IC50 values and curve fits were obtained using Prism (GraphPad Software). Buffer Conditions: 20 mM Hepes (pH 7.5), 10 mM MgCl2, 1 mM EGTA, 0.02% Brij35, 0.02 mg/mL BSA, 0.1 mM Na3VO4, 2 mM DTT, 1% DMSO.

[3] = tested on: CD69+B220+ cells; experiment: B cell activation assay (IgD-stimulated splenocytes, CD69+B220+ cells by FACS); type: cell-based; conditions: IgD 3 μg/mL, 4 h; for CD69 @ 100 nM (% Inh): 100 nM compound
How it was run: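 Read-out is percent CD69+ among live B220+ cells by FACS after 4 h stimulation with 3 μg/mL IgD at 37 °C. Before stimulation, splenocytes from one female mouse (10^6 cells/mL) received 100 nM compound for 30 min.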

T1 sequence (P42338 whole entry, canonical isoform): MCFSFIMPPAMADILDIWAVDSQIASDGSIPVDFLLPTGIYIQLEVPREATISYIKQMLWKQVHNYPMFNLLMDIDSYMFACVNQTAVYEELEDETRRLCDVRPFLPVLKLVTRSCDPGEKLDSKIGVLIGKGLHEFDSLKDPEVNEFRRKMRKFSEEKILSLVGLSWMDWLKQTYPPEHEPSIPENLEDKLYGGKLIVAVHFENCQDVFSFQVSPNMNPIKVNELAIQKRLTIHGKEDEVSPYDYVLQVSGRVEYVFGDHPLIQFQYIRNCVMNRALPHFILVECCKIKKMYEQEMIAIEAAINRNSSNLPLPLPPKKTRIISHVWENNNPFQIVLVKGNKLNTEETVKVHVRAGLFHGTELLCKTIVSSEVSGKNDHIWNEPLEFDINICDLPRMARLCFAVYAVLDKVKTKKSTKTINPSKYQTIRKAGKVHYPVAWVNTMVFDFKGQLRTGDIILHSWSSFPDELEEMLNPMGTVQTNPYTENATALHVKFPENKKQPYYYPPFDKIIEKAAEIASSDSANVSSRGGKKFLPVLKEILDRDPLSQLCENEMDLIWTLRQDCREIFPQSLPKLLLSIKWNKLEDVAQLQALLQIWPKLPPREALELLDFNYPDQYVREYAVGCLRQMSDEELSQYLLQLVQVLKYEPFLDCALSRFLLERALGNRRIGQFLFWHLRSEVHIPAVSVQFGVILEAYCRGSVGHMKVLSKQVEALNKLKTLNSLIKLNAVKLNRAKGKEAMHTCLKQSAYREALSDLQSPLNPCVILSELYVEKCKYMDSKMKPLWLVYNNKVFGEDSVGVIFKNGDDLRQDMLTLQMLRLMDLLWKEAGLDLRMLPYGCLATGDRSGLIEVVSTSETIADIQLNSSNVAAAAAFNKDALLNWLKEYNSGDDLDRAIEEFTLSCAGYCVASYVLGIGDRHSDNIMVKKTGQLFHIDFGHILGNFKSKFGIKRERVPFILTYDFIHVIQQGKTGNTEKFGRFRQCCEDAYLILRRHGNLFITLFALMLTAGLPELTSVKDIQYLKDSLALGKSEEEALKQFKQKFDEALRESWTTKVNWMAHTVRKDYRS
T1 sequence (P27986 whole entry partner, canonical isoform): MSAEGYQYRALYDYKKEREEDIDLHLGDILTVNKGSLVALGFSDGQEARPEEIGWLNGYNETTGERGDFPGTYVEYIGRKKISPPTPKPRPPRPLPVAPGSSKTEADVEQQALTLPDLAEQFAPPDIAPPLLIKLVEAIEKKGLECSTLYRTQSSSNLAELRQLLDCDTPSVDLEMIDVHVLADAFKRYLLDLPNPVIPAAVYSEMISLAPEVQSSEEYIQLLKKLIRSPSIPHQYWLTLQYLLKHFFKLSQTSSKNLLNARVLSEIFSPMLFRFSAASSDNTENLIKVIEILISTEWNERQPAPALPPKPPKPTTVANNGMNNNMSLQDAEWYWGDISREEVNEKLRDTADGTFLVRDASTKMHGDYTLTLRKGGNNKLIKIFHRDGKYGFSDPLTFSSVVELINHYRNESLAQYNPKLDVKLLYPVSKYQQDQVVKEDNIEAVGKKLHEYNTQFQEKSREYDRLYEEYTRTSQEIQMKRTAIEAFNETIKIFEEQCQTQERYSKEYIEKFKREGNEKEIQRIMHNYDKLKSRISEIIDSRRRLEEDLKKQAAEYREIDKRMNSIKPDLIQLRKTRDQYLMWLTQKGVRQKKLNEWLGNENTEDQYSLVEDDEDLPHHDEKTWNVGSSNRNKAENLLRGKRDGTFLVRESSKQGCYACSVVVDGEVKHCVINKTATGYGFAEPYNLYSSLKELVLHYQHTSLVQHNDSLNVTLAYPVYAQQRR

Nc1ncnc2c1c(-c1ccc(F)c(O)c1)nn2C1CCc2ccccc2C1 (racemic) [Compound No. 26, 5-(4-amino-1-(1,2,3,4-tetrahydronaphthalen-2-yl)-1H-pyrazolo[3,4-d]pyrimidin-3-yl)-2-fluorophenol]
PI3Kβ @ 0.3 μM (% Inh) [1]: 37.87 % Inh
TEC @ 0.3 μM (% Inh) [2]: 66.1 % Inh

Nc1ncnc2c1c(-c1ccc3cc[nH]c3c1)nn2C1CCc2ccccc2C1 (racemic) [compound 18, 3-(1H-indol-6-yl)-1-(1,2,3,4-tetrahydronaphthalen-2-yl)-1H-pyrazolo[3,4-d]pyrimidin-4-amine]
PI3Kβ @ 0.3 μM (% Inh) [1]: 34.21 % Inh
CD69 @ 100 nM (% Inh) ([3]; mouse splenocytes): 13.22 ± 11.84 (n = 5) % Inh
TEC @ 0.3 μM (% Inh) [2]: 10.01 % Inh

Nc1ncnc2c1c(-c1cc(O)cc(F)c1)nn2C1CCc2ccccc2C1 (single isomer, unassigned) [6a, 3-(4-amino-1-(1,2,3,4-tetrahydronaphthalen-2-yl)-1H-pyrazolo[3,4-d]pyrimidin-3-yl)-5-fluorophenol]
PI3Kβ @ 0.3 μM (% Inh) ([1]; 0.3 µM): 55.06 % Inh
CD69 @ 100 nM (% Inh) ([3]; mouse splenocytes, 0.1 µM): 64.71 ± 19.01 (n = 6) % Inh
IC50 ([3]; Mus musculus, Splenocyte): 107 ± 26.2 nM
TEC @ 0.3 μM (% Inh) ([2]; 0.3 µM): 41.28 % Inh

Nc1ncnc2c1c(-c1cc(O)cc(F)c1)nn2C1CCc2ccccc2C1 (single isomer, unassigned) [6b, 3-(4-amino-1-(1,2,3,4-tetrahydronaphthalen-2-yl)-1H-pyrazolo[3,4-d]pyrimidin-3-yl)-5-fluorophenol]
PI3Kβ @ 0.3 μM (% Inh) ([1]; 0.3 µM): 69.23 % Inh
CD69 @ 100 nM (% Inh) ([3]; mouse splenocytes, 0.1 µM): 68.73 ± 21.60 (n = 6) % Inh
IC50 ([3]; mouse splenocytes): 118 ± 104 nM
TEC @ 0.3 μM (% Inh) ([2]; 0.3 µM): 27.3 % Inh

C=CC(=O)N1CC(n2nc(-c3cc(O)cc(F)c3)c3c(N)ncnc32)Cc2cc(C)ccc21 (single isomer, unassigned) [31b, 1-(3-(4-amino-3-(3-fluoro-5-hydroxyphenyl)-1H-pyrazolo[3,4-d]pyrimidin-1-yl)-6-methyl-3,4-dihydroquinolin-1(2H)-yl)prop-2-en-1-one]
PI3Kβ @ 0.3 μM (% Inh) [1]: 32.34 % Inh
CD69 @ 100 nM (% Inh) ([3]; mouse splenocytes, 0.1 µM): −13.21 ± 4.55 (n = 3) % Inh
TEC @ 0.3 μM (% Inh) [2]: 56.91 % Inh

Nc1ncnc2c1c(-c1ccc(F)c(O)c1)nn2C1CCc2ccccc2C1 (single isomer, unassigned) [Compound No. 26a, 5-(4-amino-1-(1,2,3,4-tetrahydronaphthalen-2-yl)-1H-pyrazolo[3,4-d]pyrimidin-3-yl)-2-fluorophenol]
IC50 [1]: 1120 nM
CD69 @ 100 nM (% Inh) ([3]; mouse splenocytes, 0.1 µM): 16.07 ± 15.99 (n = 5) % Inh
IC50 [2]: 49.3 nM

Nc1ncnc2c1c(-c1ccc(F)c(O)c1)nn2C1CCc2ccccc2C1 (single isomer, unassigned) [Compound No. 26b, 5-(4-amino-1-(1,2,3,4-tetrahydronaphthalen-2-yl)-1H-pyrazolo[3,4-d]pyrimidin-3-yl)-2-fluorophenol]
IC50 [1]: 787 nM
CD69 @ 100 nM (% Inh) ([3]; mouse splenocytes, 0.1 µM): 11.62 ± 20.93 (n = 5) % Inh
IC50 [2]: 82.1 nM

Nc1ncnc2c1c(-c1ccc(F)c(O)c1)nn2C1Cc2ccccc2C1 [Compound No. 29, 5-(4-amino-1-indan-2-yl-pyrazolo[3,4-d]pyrimidin-3-yl)-2-fluoro-phenol]
IC50 [1]: 418 nM
CD69 @ 100 nM (% Inh) ([3]; mouse splenocytes): 17.76 ± 20.69 (n = 9) % Inh
IC50 [2]: 20.5 nM

COc1cc(-c2nn(C3Cc4ccccc4C3)c3ncnc(N)c23)ccc1C [Compound No. 49, 1-(2,3-dihydro-1H-inden-2-yl)-3-(3-methoxy-4-methylphenyl)-1H-pyrazolo[3,4-d]pyrimidin-4-amine]
PI3Kβ @ 0.3 μM (% Inh) [1]: 19.09 % Inh
CD69 @ 100 nM (% Inh) ([3]; mouse splenocytes): 16.42 ± 20.45 (n = 9) % Inh
TEC @ 0.3 μM (% Inh) [2]: 44.68 % Inh

Nc1ncnc2c1c(-c1ccc(Cl)c(O)c1)nn2C1Cc2ccccc2C1 [Compound No. 56, 5-[4-amino-1-(2,3-dihydro-1H-inden-2-yl)-1H-pyrazolo[3,4-d]pyrimidin-3-yl]-2-chlorophenol]
PI3Kβ @ 0.3 μM (% Inh) [1]: 27.87 % Inh
CD69 @ 100 nM (% Inh) ([3]; mouse splenocytes): 20.57 ± 19.79 (n = 9) % Inh
TEC @ 0.3 μM (% Inh) [2]: 61.02 % Inh

Nc1ncnc2c1c(-c1cc(O)cc(F)c1)cn2C1Cc2ccccc2C1 [Compound No. 63, 3-[4-amino-7-(2,3-dihydro-1H-inden-2-yl)-7H-pyrrolo[2,3-d]pyrimidin-5-yl]-5-fluorophenol]
PI3Kβ @ 0.3 μM (% Inh) [1]: 50.79 % Inh
CD69 @ 100 nM (% Inh) ([3]; mouse splenocytes): 21.07 ± 27.71 (n = 9) % Inh
TEC @ 0.3 μM (% Inh) [2]: 88.12 % Inh

COc1ccc(-c2nn(C3Cc4ccccc4C3)c3ncnc(N)c23)cc1O [Compound No. 68, 5-[4-amino-1-(2,3-dihydro-1H-inden-2-yl)-1H-pyrazolo[3,4-d]pyrimidin-3-yl]-2-methoxyphenol]
PI3Kβ @ 0.3 μM (% Inh) [1]: 20.68 % Inh
CD69 @ 100 nM (% Inh) ([3]; mouse splenocytes): 44.83 ± 29.77 (n = 6) % Inh
TEC @ 0.3 μM (% Inh) [2]: 42.69 % Inh

Nc1ncnc2c1c(-c1cc(O)c(F)c(F)c1)nn2C1Cc2ccccc2C1 [Compound No. 81, 5-[4-amino-1-(2,3-dihydro-1H-inden-2-yl)-1H-pyrazolo[3,4-d]pyrimidin-3-yl]-2,3-difluorophenol]
PI3Kβ @ 0.3 μM (% Inh) [1]: 73.05 % Inh
CD69 @ 100 nM (% Inh) ([3]; mouse splenocytes): 88.08 ± 32.59 (n = 5) % Inh
IC50 ([3]; Mus musculus, Splenocyte): 106 ± 50.8 nM
TEC @ 0.3 μM (% Inh) [2]: 71.22 % Inh

Nc1ncnc2c1c(-c1cc(F)c3c(c1)NCCO3)nn2C1Cc2ccccc2C1 [Compound No. 84, 1-(2,3-dihydro-1H-inden-2-yl)-3-(8-fluoro-3,4-dihydro-2H-1,4-benzoxazin-6-yl)-1H-pyrazolo[3,4-d]pyrimidin-4-amine]
PI3Kβ @ 0.3 μM (% Inh) [1]: 27.83 % Inh
CD69 @ 100 nM (% Inh) ([3]; mouse splenocytes): 47.61 ± 24.72 (n = 15) % Inh
IC50 ([3]; Mus musculus, Splenocyte): 154 nM
TEC @ 0.3 μM (% Inh) [2]: 23.9 % Inh

Nc1ncnc2c1c(-c1ccc(Br)c(O)c1)nn2C1Cc2ccccc2C1 [compound 2, 5-(4-amino-1-(2,3-dihydro-1H-inden-2-yl)-1H-pyrazolo[3,4-d]pyrimidin-3-yl)-2-bromophenol]
CD69 @ 100 nM (% Inh) ([3]; mouse splenocytes): 22.52 ± 18.41 (n = 5) % Inh
IC50 [2]: 100 nM

Nc1ncnc2c1c(-c1cc(O)cc(F)c1)nn2C1CCc2ccccc2C1 (centres unmarked) [compound 6, 3-(4-amino-1-(1,2,3,4-tetrahydronaphthalen-2-yl)-1H-pyrazolo[3,4-d]pyrimidin-3-yl)-5-fluorophenol]
IC50 [1]: 105 nM
IC50 [2]: 280 nM

C=CC(=O)N1CC(n2nc(-c3cc(O)cc(F)c3)c3c(N)ncnc32)Cc2cc(C)ccc21 (centres unmarked) [compound 31, 1-(3-(4-amino-3-(3-fluoro-5-hydroxyphenyl)-1H-pyrazolo[3,4-d]pyrimidin-1-yl)-6-methyl-3,4-dihydroquinolin-1(2H)-yl)prop-2-en-1-one]
PI3Kβ @ 0.3 μM (% Inh) [1]: 52.63 % Inh
IC50 [1]: 927 nM
TEC @ 0.3 μM (% Inh) [2]: 57.08 % Inh
IC50 [2]: 24300 nM
